Consider 15 molecules from ChEMBL document CHEMBL4477214.

SMILES strings stand for the structures.

One series deals with Influenza A virus. In words: Antiviral activity against influenza A virus H1N1 ATCC VR-1737 infected in MDCK cells after 48 hrs by hemagglutination assay. It counts as functional, organism-based. To be noted: H1N1 ATCC VR-1737, MDCK.
For orientation: EC50 means the concentration at which the effect is half-maximal. Low readings indicate an effect from little substance, high ones a need for much substance. `O=C(O)/C(O)=C/C(=O)C1(Cc2ccc(Cl)cc2)CCN(Cc2ccccc2)CC1` yielded a half-maximal effective concentration (EC50) of 9 µM.

The subject of another series is MDCK. In words: Cytotoxicity against MDCK cells after 48 hrs by cell-titre glo luminescence assay. The class given is cell-based, Canis lupus familiaris. To be noted: dog.
Usually CC50 stands for the concentration at which the toxic effect on the cells reaches its halfway point. Regarding `CN(Cc1cc(=O)c(O)cn1-c1ccc(-c2nnn[nH]2)cc1)c1ccc(Cl)cc1`, the midpoint of cytotoxicity, the CC50, lay at 280 µM. Still for that read-out and setting: as for `O=C(O)/C(O)=C/C(=O)C1(Cc2ccc(Cl)cc2)CCN(Cc2ccccc2)CC1`, the figure is 284 µM.

Another series has as its target Polymerase acidic protein (Influenza A virus (A/Puerto Rico/8/1934(H1N1)), UniProt P03433). In words: Inhibition of 8-histidine tagged influenza virus H1N1 N-terminal PA endonuclease expressed in Escherichia coli BL21 cells using single-stranded 5'-FAM fluorophore/3'-TAMRA quencher)-labeled 17-mer ssDNA-oligomer substrate measured over 45 mins by FRET analysis.
Conditions: not given
Broadly, the IC50 is the point on the concentration scale where inhibition reaches its midpoint. Turning to `Cc1c(O)c(=O)ccn1-c1ccccc1`, the half-inhibitory concentration (IC50) was 18 µM. The same measure, in the same setting: as for `O=c1cc(CNCc2ccccc2)occ1O`, the figure is 2.7 µM. The same measure, in the same setting: as for `CS(=O)(=O)NCc1cc(=O)c(O)co1`, the figure is 4.8 µM; as for `CN(Cc1cc(=O)c(O)co1)c1ccc(F)cc1`, 1.8 µM. The same measure, in the same setting: the same measure for `Cc1occ(O)c(=O)c1C(=O)NCCc1ccccc1`: 11.3 µM. The molecule `Cc1c(O)c(=O)ccn1C1CCCCC1` gave a 50% inhibitory concentration (IC50) of 14 µM. Molecule `CN(Cc1cc(=O)c(O)co1)c1cccc(F)c1` came in with an IC50 of 3.2 µM. The same measure, in the same setting: as for `Cc1cc(=O)c(O)cn1-c1ccc(-c2ccccc2)cc1`, the figure is 1.3 µM; as for `COc1cccc(CNC(=O)c2c(C)occ(O)c2=O)c1`, 22.1 µM. On the same count and under the same terms, the same measure for `CCOC(=O)c1c(C)n(-c2ccc(Oc3ccccc3)cc2)cc(O)c1=O`: 5.2 µM; for `Cc1cc(=O)c(O)cn1C1CCOCC1`: 0.73 µM.

One may read the pIC50 as the IC50 on a negative log10 scale, so that one unit is a factor of ten. Molecule `CN(Cc1cc(=O)c(O)co1)c1ccncc1` gave an IC50 greater than 100 µM and a pIC50 of less than 4.

The molecule `CCOC(=O)c1c(C)n(-c2ccccc2)cc(O)c1=O` had an IC50 of 5.3 µM.
